# Data reported in ChEMBL document CHEMBL3885881, “DrugMatrix”.
# Species on record: Rattus norvegicus
# Assay: DrugMatrix - Regimen: Daily Repeat
# Format: toxicity, organism-based, Sprague-Dawley
# Parameters: regimen Daily Repeat, gender Male, age 6-8 weeks
# Settings: in vivo, po, route oral GAVAGE, […]; for ABSOLUTE BASOPHIL / ABSOLUTE EOSINOPHIL / ABSOLUTE LYMPHOCYTE / ABSOLUTE MONOCYTE / ABSOLUTE SEGMENTED NEUTROPHIL / BASOPHIL / EOSINOPHIL / ERYTHROCYTE COUNT / HEMATOCRIT / HEMOGLOBIN / LEUKOCYTE COUNT / LYMPHOCYTE / MEAN CORPUSCULAR HEMOGLOBIN / MEAN CORPUSCULAR HEMOGLOBIN CONCENTRATION / MEAN CORPUSCULAR VOLUME / MONOCYTE / NEUTROPHIL / NUCLEATED RED BLOOD CELLS / PLATELET COUNT: tissue Blood; for ALANINE AMINOTRANSFERASE / ALBUMIN / ALKALINE PHOSPHATASE / ASPARTATE AMINOTRANSFERASE / BLOOD UREA NITROGEN / CARBON DIOXIDE / CHLORIDE / CHOLESTEROL / CREATINE PHOSPHOKINASE / CREATININE / GLUCOSE / LACTATE DEHYDROGENASE / LIPASE / PHOSPHORUS / POTASSIUM / SODIUM / TOTAL BILIRUBIN / TOTAL PROTEIN / URIC ACID: tissue Plasma
# [1] = 30 mg/kg, 120 h, dose level Low, time 5 day
# [2] = 2500 mg/kg, 72 h, dose level High, time 3 day
# [3] = 2500 mg/kg, 120 h, dose level High, time 5 day
compound,measurement,setting,value
COC1=CC(=O)C[C@@H](C)[C@]12Oc1c(Cl)c(OC)cc(OC)c1C2=O [GRISEOFULVIN],ABSOLUTE BASOPHIL,[1],0 CELLS/uL
same,ABSOLUTE EOSINOPHIL,[1],0 CELLS/uL
same,ABSOLUTE LYMPHOCYTE,[1],12913.33 CELLS/uL
same,ABSOLUTE MONOCYTE,[1],48.67 CELLS/uL
same,ABSOLUTE SEGMENTED NEUTROPHIL,[1],1938 CELLS/uL
same,BASOPHIL,[1],0%
same,EOSINOPHIL,[1],0%
same,ERYTHROCYTE COUNT,[1],5.4 x10E6/uL
same,HEMATOCRIT,[1],33.57%
same,HEMOGLOBIN,[1],12.93 G/DL
same,LEUKOCYTE COUNT,[1],14.9 x10E3/uL
same,LYMPHOCYTE,[1],86.67%
same,MEAN CORPUSCULAR HEMOGLOBIN,[1],23.93 pg
same,MEAN CORPUSCULAR HEMOGLOBIN CONCENTRATION,[1],38.5 G/DL
same,MEAN CORPUSCULAR VOLUME,[1],62.1 fL
same,MONOCYTE,[1],0.33%
same,NEUTROPHIL,[1],13%
same,NUCLEATED RED BLOOD CELLS,[1],0 /100WBC
same,PLATELET COUNT,[1],1179 x10E3/uL
same,ALANINE AMINOTRANSFERASE,[1],63.67 u/L
same,ALBUMIN,[1],3.87 G/DL
same,ALKALINE PHOSPHATASE,[1],399.67 u/L
same,ASPARTATE AMINOTRANSFERASE,[1],90.33 u/L
same,BLOOD UREA NITROGEN,[1],15.33 mg/dL
same,CARBON DIOXIDE,[1],28.33 mmol/L
same,CHLORIDE,[1],101.67 MEQ/L
same,CHOLESTEROL,[1],66.33 mg/dL
same,CREATINE PHOSPHOKINASE,[1],384.67 u/L
same,CREATININE,[1],0.2 mg/dL
same,GLUCOSE,[1],154 mg/dL
same,LACTATE DEHYDROGENASE,[1],329.33 u/L
same,LIPASE,[1],10 u/L
same,PHOSPHORUS,[1],11.63 mg/dL
same,POTASSIUM,[1],6.32 MEQ/L
same,SODIUM,[1],143 MEQ/L
same,TOTAL BILIRUBIN,[1],0.2 mg/dL
same,TOTAL PROTEIN,[1],5.5 G/DL
same,URIC ACID,[1],1.43 mg/dL
same,ABSOLUTE BASOPHIL,[2],0 CELLS/uL
same,ABSOLUTE EOSINOPHIL,[2],109.33 CELLS/uL
same,ABSOLUTE LYMPHOCYTE,[2],15660.67 CELLS/uL
same,ABSOLUTE MONOCYTE,[2],63 CELLS/uL
same,ABSOLUTE SEGMENTED NEUTROPHIL,[2],2167 CELLS/uL
same,BASOPHIL,[2],0%
same,EOSINOPHIL,[2],0.67%
same,ERYTHROCYTE COUNT,[2],5.22 x10E6/uL
same,HEMATOCRIT,[2],32.37%
same,HEMOGLOBIN,[2],12.83 G/DL
same,LEUKOCYTE COUNT,[2],18 x10E3/uL
same,LYMPHOCYTE,[2],87%
same,MEAN CORPUSCULAR HEMOGLOBIN,[2],24.6 pg
same,MEAN CORPUSCULAR HEMOGLOBIN CONCENTRATION,[2],39.67 G/DL
same,MEAN CORPUSCULAR VOLUME,[2],62.07 fL
same,MONOCYTE,[2],0.33%
same,NEUTROPHIL,[2],12%
same,NUCLEATED RED BLOOD CELLS,[2],0 /100WBC
same,PLATELET COUNT,[2],1162 x10E3/uL
same,ALANINE AMINOTRANSFERASE,[2],57 u/L
same,ALBUMIN,[2],3.87 G/DL
same,ALKALINE PHOSPHATASE,[2],293.67 u/L
same,ASPARTATE AMINOTRANSFERASE,[2],75.67 u/L
same,BLOOD UREA NITROGEN,[2],14.33 mg/dL
same,CARBON DIOXIDE,[2],33.67 mmol/L
same,CHLORIDE,[2],98.33 MEQ/L
same,CHOLESTEROL,[2],107.67 mg/dL
same,CREATINE PHOSPHOKINASE,[2],199 u/L
same,CREATININE,[2],0.17 mg/dL
same,GLUCOSE,[2],144 mg/dL
same,LACTATE DEHYDROGENASE,[2],120 u/L
same,LIPASE,[2],11.67 u/L
same,PHOSPHORUS,[2],12.17 mg/dL
same,POTASSIUM,[2],6.74 MEQ/L
same,SODIUM,[2],142.47 MEQ/L
same,TOTAL BILIRUBIN,[2],0.2 mg/dL
same,TOTAL PROTEIN,[2],5.83 G/DL
same,URIC ACID,[2],1.47 mg/dL
same,ABSOLUTE BASOPHIL,[3],0 CELLS/uL
same,ABSOLUTE EOSINOPHIL,[3],34 CELLS/uL
same,ABSOLUTE LYMPHOCYTE,[3],11701.67 CELLS/uL
same,ABSOLUTE MONOCYTE,[3],201.67 CELLS/uL
same,ABSOLUTE SEGMENTED NEUTROPHIL,[3],562.67 CELLS/uL
same,BASOPHIL,[3],0%
same,EOSINOPHIL,[3],0.33%
same,ERYTHROCYTE COUNT,[3],5.46 x10E6/uL
same,HEMATOCRIT,[3],34.03%
same,HEMOGLOBIN,[3],13.2 G/DL
same,LEUKOCYTE COUNT,[3],12.5 x10E3/uL
same,LYMPHOCYTE,[3],93.67%
same,MEAN CORPUSCULAR HEMOGLOBIN,[3],24.23 pg
same,MEAN CORPUSCULAR HEMOGLOBIN CONCENTRATION,[3],38.8 G/DL
same,MEAN CORPUSCULAR VOLUME,[3],62.4 fL
same,MONOCYTE,[3],1.67%
same,NEUTROPHIL,[3],4.33%
same,NUCLEATED RED BLOOD CELLS,[3],0.33 /100WBC
same,PLATELET COUNT,[3],1293.67 x10E3/uL
same,ALANINE AMINOTRANSFERASE,[3],49.67 u/L
same,ALBUMIN,[3],4.17 G/DL
same,ALKALINE PHOSPHATASE,[3],316.33 u/L
same,ASPARTATE AMINOTRANSFERASE,[3],89.33 u/L
same,BLOOD UREA NITROGEN,[3],17.67 mg/dL
same,CARBON DIOXIDE,[3],24 mmol/L
same,CHLORIDE,[3],109 MEQ/L
same,CHOLESTEROL,[3],95.67 mg/dL
same,CREATINE PHOSPHOKINASE,[3],362.67 u/L
same,CREATININE,[3],0.28 mg/dL
same,GLUCOSE,[3],152.67 mg/dL
same,LACTATE DEHYDROGENASE,[3],489 u/L
same,LIPASE,[3],11.33 u/L
same,PHOSPHORUS,[3],11.23 mg/dL
same,POTASSIUM,[3],6.51 MEQ/L
same,SODIUM,[3],150.77 MEQ/L
same,TOTAL BILIRUBIN,[3],0.13 mg/dL
same,TOTAL PROTEIN,[3],6.2 G/DL
same,URIC ACID,[3],1.83 mg/dL
